# Measured values published in patent US8685976B2, “Cell adhesion promoting agent and method of promoting cell adhesion” (Kyoto University, priority 2008, dated 2014).
# How the values were obtained:
# Jurkat cells = assay: Microinjection of Alexa Fluor 594; assay type: cell-based, human; settings: 5 μg/mL reagent
# Protocol: The concentration of the reagents used was 5 μg/mL.
# The solutions of adhesamine (1), Type I collagen, poly-L-lysine hydrochloride, and fibronectin were prepared by diluting with PBS containing 1% (v/v) DMSO. 10 μL of each solution (1 mg/mL) was added to glass bottom culture dishes (35 mm uncoated dish). 2 mL of cell suspension in a culture medium was added to each well at a density of 2×10^5 cells/mL. After 14-hour incubation at 37° C., Alexa Fluor 594 (Molecular Probes, USA) at a concentration of 5 mg/mL was injected into Jurkat cells by using a CI-2000 automated cell injection system (Fujitsu, Japan). Success rates of the microinjection were evaluated by direct observation of the fluorescent cells through a fluorescent-microscopic window of the injection system. The data shown are means±SD for a minimum of three experiments. 20 cells were injected in each experiment.
# [1] = test system: extracellular signal-regulated kinase (ERK); assay: Western blotting, ERK activation; assay type: cell-based, human; settings: Jurkat, 6 μM
# Protocol: Jurkat cells were treated with adhesamine (6 μM) in a serum-poor culture medium (0.1% FBS) for the indicated periods of time. The treated cell lysates were Western blotted with antibodies against FAK phospho-tyrosine^397 (pFAK), FAK, ERK1/2 phospho-threonine^202/tyrosine^204 (pERK) or ERK. In (B), Jurkat cells were incubated for 5 hours with varied concentrations of adhesamine or poly-L-lysine. The cell lysates were Western blotted with antibodies against FAK phospho-tyrosine^397 or FAK. […] The concentration of adhesamine (1) was 6 μM.
# Jurkat cells were maintained in an RPMI medium containing 10% FBS. 5-6 million Jurkat cells were dispensed to a well of a 6-well plate in a final volume of 2 mL, and then incubated at 37° C. for 0-5 hours in the presence of adhesamine or poly-L-lysine. Non-adherent cells were removed and pelleted, and the remaining adherent cells were lysed in a 125 mM Tris-HCl buffer (pH 6.8) containing 4% SDS, 10% glycerol, 0.006% bromophenol blue, and 1.8% β-mercaptoethanol. The adherent cell homogenate was combined with pelleted nonadherent cells from the same well, and the combined sample was boiled for 5 minutes. The samples were separated by SDS-PAGE and electroblotted onto a nitrocellulose membrane. The membranes were blocked in 1% BSA and incubated with primary antibody, and then with horseradish peroxidase-conjugated secondary antibody. […]
# HepG2 cells = assay: Visualization of actin cytoskeleton with rhodamine-conjugated phalloidin, HepG2; assay type: cell-based; settings: HepG2, 6 μM
# Protocol: In (A) and (B), the cell growth was determined at 24, 48, and 72 hours after the addition of adhesamine (1) (6 μM). The cell growth in the presence of 1% (v/v) DMSO was assigned a value of 100%. The data shown are means±SD for a minimum of three experiments. (C) to (F) show the rearrangement of actin filaments in HepG2 and Jurkat cells in the presence of adhesamine (6 μM). Brightfield images (C and D) and confocal images (E and F) are shown. HepG2 (C and E) or Jurkat (D and F) cells were plated for 5 hours or 3 hours, respectively, and actin cytoskeletal was visualized using rhodamine-labeled phalloidin.
# Jurkat or HepG2 cells were plated onto glass coverslips in the presence of adhesamine (6 μM). They were fixed after 5 or 3 hours, respectively, with 4% paraformaldehyde for 20 minutes. The cell membrane was permeabilized by 5-min treatment with 0.1% Triton X-100 (in PBS). Samples were washed twice with PBS, and actin cytoskeleton was visualized with rhodamine-conjugated phalloidin according to the manufacturer's instructions (Invitrogen). The cell images were captured with a Yokogawa CSU22 confocal fluorescence microscope with 588-nm laser excitation.
# CHO 677 cells = assay: Cell adhesion assay, CHO 677; assay type: cell-based; settings: CHO 677, 6 μM, vs parental CHO-K1
# Protocol: (A) and (B) show CHO-K1 (wild-type) cells incubated with 1% (v/v) DMSO (A) or 6 μM adhesamine (B). (C) and (D) show CHO 677 incubated with 1% (v/v) DMSO (A) or 6 μM adhesamine (B). […] Cells were seeded onto adhesamine-added or fibronectin-coated plastic wells. The concentrations of adhesamine and fibronectin were 6 μM and 5 μg/mL, respectively. Adhered cells were counted at 5 hours after seeding. Each point represents average±SD.
# For CHO wild-type and CHO mutant cell lines, 100 μL of trypsinized cell suspension in a culture medium was added to each well at a density of 2×10^5 cells/mL. After 5-hour incubation at 37° C., non-adhered cells were removed by washing each well with PBS twice, and the attached cells were counted with a Neubauer counting chamber (Digital Bio). To calculate adhesion rates, the cell numbers before washing were assigned a value of 100%. Each assay was conducted in triplicate, and the means and standard derivations were calculated for a minimum of three independent experiments.
compound,measurement,setting,value
CSc1nc(Cl)c(C=O)c(N2CC[N+]3(CC2)CC[N+]2(CCN(c4nc(SC)nc(Cl)c4C=O)CC2)CC3)n1 [adhesamine],effect on microinjection success,Jurkat cells,"more than type I collagen, poly-L-lysine hydrochloride, and fibronectin"
same,microinjection success rates,Jurkat cells,≤ 80%
same,time after incubation at which ERK was phosphorylated,[1],5 h
same,actin cytoskeleton structure in adhered cells,HepG2 cells,Actin filament bundles ran in parallel to the cell axis or through cell processes
same,response of cell adhesion to adhesamine,CHO 677 cells,less responsive
